Patent US20170216240A1, “METHODS FOR MODULATING IKS CHANNEL ACTIVITY” (UNIVERSITY OF MIAMI, priority 2014, published 2017)
Several values for one entry are separate records, joined by “and”; a condition that tells them apart may be missing. Equal entries are not always repeated. Where two headings read alike, the source gives them in different places.

Legend:
Kv7.1 = Kv7.1 (Homo sapiens, UniProt P51787); assay: G(V) shift of Kv7.1 expressed in Xenopus laevis oocytes, two-electrode voltage-clamp; format: cell-based
Text: (§1) cDNAs encoding human Kv7.1 (GEnBAnk Acc. No. NM_000218) and KCNE1 (NM_000219) were subcloned into the expression vectors pGEM or pXOOM, containing the 5′- and 3′-untranslated regions for Xenopus laevis β-globin as well as a poly-A segment (Jespersen et al., Biotechniques 32, 536-538, 540 (2002)). The truncated KCNE1 construct KCNE1ΔC was constructed by introducing a Stop codon at position 67 using Quikchange site-directed mutagenesis kit (Qiagen). The construct was fully sequenced to ensure proper mutation and absence of unwanted mutations (sequencing by Genewiz). The concatemers E1-Kv7.1-Kv7.1 and E1-Kv7.1 were provided by Dr. R. S. Kass at Columbia University, and can be prepared as described in Chan et al. Journal of General Physiology 132(2), 135-144, (2012)). The E1-Kv7.1 construct was made by linking the C-terminus of KCNE1 to the N-terminus of KCNQ1. The E1-Kv7.1-Kv7.1 construct was made by digesting the E1-Kv7.1 and a Kv7.1-Kv7.1 dimer with Xho1 and inserting the 2-kb fragment from the Kv7.1-Kv7.1 dimer digest into the cut KCNE1-Kv7.1 construct. The DNA encoding E1-Kv7.1-Kv7.1 and E1-Kv7.1 were in the pGEM vector and contained mutations to make the constructs suitable for voltage-clamp fluorometry recordings (Wang et al., J Biol Chem 273, 34069-34074 (1998)). The original KCNE1 and Kv7.1 sequences were therefore removed, one at a time, from the pGEM vector using different restriction enzymes (New England Biolabs). Sequences were separated using gel electrophoresis and harvested using Qiagen gel extraction kit. Corresponding wild type sequences were ligated into the construct using T4 Ligase (New England Biolabs). To ensure correct sequence the constructs were sequenced (Genewiz) and tested with different restriction enzymes in combination with gel electrophoresis to measure length and conformation of the gene. cRNA for injection of all constructs was prepared from linearized DNA using the T7 mMessage mMachine transcription kit (Ambion) according to the manufactures instructions. RNA quality was checked by gel electrophoresis, and RNA concentrations were quantified by UV spectroscopy.
(§2) Xenopus laevis oocytes were isolated and maintained (Bentzen, B. H. et al. Neuropharmacology 51, 1068-1077 (2006)). Approximately 50 nl cRNA (50 ng Kv7.1, KCNE1-Kv7.1-Kv7.1 or KCNE1-Kv7.1 alternatively 25 ng Kv7.1 together with 8 ng KCNE1 or KCNE1ΔC) was injected into each oocyte using a Nanojet microinjector (Drummond). Electrophysiological experiments were made 2-5 days after injection. Currents were measured at room temperature with the two-electrode voltage-clamp technique (CA-1B Dagan amplifier). Currents were sampled at 1-3.3 kHz, filtered at 500 Hz, and not leakage corrected. […] A control solution containing (in mM): 88 NaCl, 1 KCl, 15 HEPES, 0.4 CaCl2, and 0.8 MgCl2 was used. NaOH was added to adjust pH to 7.4, yielding a final sodium concentration of about 100 mM. The holding voltage was generally set to −80 mV. Activation curves were generally elicited by stepping to test voltages between −110 and +60 mV (2-4 s durations and 10 mV increments) followed by a tail voltage of −30 mV. For recordings of Kv7.1 at pH 9 and pH 10, the holding voltage was set to more negative voltages because the largest DHA-induced shifts induced channel opening already at −80 mV. […] Therefore, in arachidonyl amine experiments a brief hyperpolarizing pulse of 50 ms to −120 mV was introduced between the test voltage and the tail voltage to relief the channels from inactivation.
(§3) Test compounds were dissolved in 99.5% ethanol to a concentration of 100 mM and stored at −20° C. (Börjesson et al., Biophys J 95, 2242-2253 (2008); Börjesson et al., Biophys J 98, 396-403 (2010)). Shortly before experiments, test compounds were diluted in control solution to the desired test concentration. Pure control solution was added to the bath using a gravity-driven perfusion system. […]

Kv7.1/KCNE1 = target: T1, Kv7.1/KCNE1 (Homo sapiens, UniProt P51787); assay: G(V) shift of Kv7.1 co-expressed with KCNE1 in Xenopus oocytes, two-electrode voltage-clamp; format: cell-based; settings: for ΔV1/2 ± SEM (G(V) shift): Kv7.1/E1; for pKa: human, Xenopus oocytes co-expressing human Kv7.1 and KCNE1, read-out: apparent pKa (pH of c0.5)
T1 construct: expressed in transfected cells; host or cells: Xenopus laevis oocytes (cRNA co-injection)
Text: as §1, §2, §3

KCNE1-Kv7.1-Kv7.1 = KCNE1-Kv7.1-Kv7.1 (Homo sapiens, UniProt P15382+P51787); assay: G(V) shift of KCNE1-Kv7.1-Kv7.1 concatemer (4:2 stoichiometry) in Xenopus oocytes; format: cell-based; settings: 70 μM; for ΔV1/2 ± SEM (G(V) shift): E1-Kv7.1-Kv7.1
Text: (§4) As used herein, the terms “KCNE1-Kv7.1” and “KCNE1-Kv7.1-Kv7.1” refer to concatemers of Kv7.1 and KCNE1 in 4:4 and 4:2 stoichiometry, respectively.
as §1, with “The original KCNE1 and Kv7.1 sequences were therefore removed, one at a time, from the pGEM vector using different restriction enzymes (New England Biolabs). Sequences were separated using gel electrophoresis and harvested using Qiagen gel extraction kit. Corresponding wild type sequences were ligated into the construct using T4 Ligase (New England Biolabs). To ensure correct sequence the constructs were sequenced (Genewiz) and tested with different restriction enzymes in combination with gel electrophoresis to measure length and conformation of the gene. cRNA for injection of all constructs was prepared from linearized DNA using the T7 mMessage mMachine transcription kit (Ambion) according to the manufactures instructions.” left out
(§5) Xenopus laevis oocytes were isolated and maintained (Bentzen, B. H. et al. Neuropharmacology 51, 1068-1077 (2006)). […] Currents were measured at room temperature with the two-electrode voltage-clamp technique (CA-1B Dagan amplifier). […]
(§6) Xenopus laevis oocyte data were acquired using either Pulse software (HEKA) or Clampex 10.2 (Axon Instruments), and analyzed with Clampfit 10 (Axon Instruments) and GraphPad Prism 4 (GraphPad Software). […]

KCNE1-Kv7.1 = KCNE1-Kv7.1 (Homo sapiens, UniProt P15382+P51787); assay: G(V) shift of KCNE1-Kv7.1 concatemer (4:4 stoichiometry) in Xenopus oocytes; format: cell-based; settings: 70 μM; for ΔV1/2 ± SEM (G(V) shift): E1-Kv7.1
Text: as §4
as §1, with “The original KCNE1 and Kv7.1 sequences were therefore removed, one at a time, from the pGEM vector using different restriction enzymes (New England Biolabs). Sequences were separated using gel electrophoresis and harvested using Qiagen gel extraction kit. Corresponding wild type sequences were ligated into the construct using T4 Ligase (New England Biolabs). To ensure correct sequence the constructs were sequenced (Genewiz) and tested with different restriction enzymes in combination with gel electrophoresis to measure length and conformation of the gene. cRNA for injection of all constructs was prepared from linearized DNA using the T7 mMessage mMachine transcription kit (Ambion) according to the manufactures instructions.” left out
as §5, §6

intact guinea pig hearts = assay: Restoration of QT interval in intact hearts with E4031-induced Long QT; settings: E4031
Text: Long QT syndrome was induced in intact guinea pig hearts by administration of the drug E4031, a HERG channel blocker.

in vitro = settings: human, Caco-2

Compound: CCCCC/C=C\C/C=C\C/C=C\C/C=C\CCCCN [AA+, arachidonyl amine]
- Kv7.1 channel inactivation (Kv7.1; Kv7.1): induced Kv7.1 channel inactivation
- ΔV1/2 ± SEM (G(V) shift) (Kv7.1; Kv7.1, 70 μM, pH 7.4): +9.7 ± 2.1 mV
- ΔV1/2 ± SEM (G(V) shift) (Kv7.1; Kv7.1, 70 μM, pH 7.4, listed as Arachidonyl amine): +9.7±2.1 mV
- ΔV1/2 ± SEM (G(V) shift) (Kv7.1; Kv7.1, 70 μM, pH 7.4, listed as arachidonyl amine): +9.7±2.1 mV
- ΔV1/2 ± SEM (G(V) shift) (Kv7.1/KCNE1; 70 μM, pH 7.4): +22.6 ± 1.9 mV
- ΔV1/2 ± SEM (G(V) shift) (Kv7.1/KCNE1; 70 μM, pH 7.4, listed as arachidonyl amine): +22.6±1.9 mV
- G(V) shift of a representative cell (control curve shifted) (Kv7.1/KCNE1; Kv7.1/KCNE1, 70 μM, pH 7.4): +28 mV
- G(V) shift (Kv7.1/KCNE1; Kv7.1/KCNE1, pH 7): about +25 mV

Compound: CC/C=C\C/C=C\C/C=C\C/C=C\C/C=C\C/C=C\CCC(=O)O [DHA, 4,7,10,13,16,19-all-cis-docosahexaenoic acid]
- G(V) shift of a representative cell (control curve shifted) (KCNE1-Kv7.1-Kv7.1; KCNE1-Kv7.1-Kv7.1): +7 mV
- G(V) shift of a representative cell (control curve shifted) (KCNE1-Kv7.1; KCNE1-Kv7.1): +5.5 mV
- maximal conductance (Kv7.1; Kv7.1): without affecting maximal conductance
- G(V) shift (Kv7.1; Kv7.1, 7 μM): −3.0±0.5 mV
- G(V) shift predicted from the concentration-response curve (Kv7.1; Kv7.1, 35 μM DHA alone): −6.5 mV
- c0.5 (pH-dependence of the G(V) shift) (Kv7.1; Kv7.1, 70 μM): 1.8*10^−8
- ΔVmax (pH-dependence of the G(V) shift) (Kv7.1; Kv7.1, 70 μM): −30.7 mV
- G(V) shift (Kv7.1; Kv7.1, 70 μM, pH 10): about −30 mV
- G(V) shift (Kv7.1; Kv7.1, external pH 6.5): abolishes the DHA effect
- estimated maximum shift ΔVmax (concentration dependence) (Kv7.1; Kv7.1, pH 7.4): −15.8±2.3 mV and −15.8 mV
- EC50 (Kv7.1; Kv7.1, pH 7.4, read-out: c0.5, concentration causing 50% of the maximum shift): 50 ± 20 µM
- ΔVmax (concentration-response) (Kv7.1; Kv7.1, pH 9.0): −27.7 mV
- EC50 (Kv7.1; Kv7.1, pH 9.0, read-out: C0.5 (concentration-response)): 10 µM
- pKa (Kv7.1; human, Xenopus laevis oocytes expressing human Kv7.1, Kv7.1, 70 μM, read-out: apparent pKa as reported by the shift of the G(V) relation): ~7.7
- c0.5 (pH-dependence of the G(V) shift) (Kv7.1/KCNE1; Kv7.1/KCNE1, 70 μM): 3.3*10^−9
- ΔVmax (pH-dependence of the G(V) shift) (Kv7.1/KCNE1; Kv7.1/KCNE1, 70 μM): −26.6 mV
- G(V) shift of a representative cell (control curve shifted) (Kv7.1/KCNE1; Kv7.1/KCNE1, 70 μM, pH 9): −35 mV
- pKa (Kv7.1/KCNE1; Kv7.1/KCNE1, 70 μM): 8.5

Compound: CC/C=C\C/C=C\C/C=C\C/C=C\C/C=C\C/C=C\CCC(=O)NCC(=O)O [DHA-Gly, docosahexaenoyl glycine]
- concentration able to restore the QT intervals (intact guinea pig hearts): 10 µM
- efflux ratio (in vitro): 3.6
- apparent pKa lower than that of DHA (Kv7.1/KCNE1; Kv7.1/KCNE1): about 1.5 pH unit
- pKa (Kv7.1/KCNE1; Kv7.1/KCNE1, 70 μM): 6.9

Compound: CC/C=C\C/C=C\C/C=C\C/C=C\C/C=C\C/C=C\CCC(=O)OC [DHA-me, 4,7,10,13,16,19-all-cis-docosahexaenoic acid methyl ester]
- ΔV1/2 ± SEM (G(V) shift) (KCNE1-Kv7.1-Kv7.1; pH 7.4): +5.7 ± 0.9 mV
- ΔV1/2 ± SEM (G(V) shift) (KCNE1-Kv7.1-Kv7.1; pH 9.0): +8.2 ± 2.7 mV
- ΔV1/2 ± SEM (G(V) shift) (KCNE1-Kv7.1; pH 7.4): +5.0 ± 1.3 mV
- ΔV1/2 ± SEM (G(V) shift) (KCNE1-Kv7.1; pH 9.0): +3.6 ± 2.6 mV
- ΔV1/2 ± SEM (G(V) shift) (Kv7.1; Kv7.1, 70 μM, pH 7.4): +2.8 ± 2.5 mV
- ΔV1/2 ± SEM (G(V) shift) (Kv7.1; Kv7.1, 70 μM, pH 7.4, listed as DHA methyl ester): no effect
- ΔV1/2 ± SEM (G(V) shift) (Kv7.1; Kv7.1, 70 μM, pH 7.4, listed as DHA-Me): +2.8±2.5 mV

Compound: CCCCC/C=C\C/C=C\CCCCCCCC(=O)NCC(=O)O [Lin-Gly, linoleoyl-glycine]
- Kv7.1 affinity (Kv7.1; compared among NAA, Lin-Gly, Ste-Gly, DHA-Gly, TTA, HTA): lowest affinity

Compound: CCCCCCCC/C=C\CCCCCCCC(=O)O [OA, oleic acid]
- ΔV1/2 ± SEM (G(V) shift) (Kv7.1; Kv7.1, 70 μM, pH 7.4): −1.0±0.5 mV
- ΔV1/2 ± SEM (G(V) shift) (Kv7.1; Kv7.1, 70 μM, pH 7.4, listed as Oleic acid): no effect

Compound: CC(C)NCC(O)COc1cccc2ccccc12 (centres unmarked) [propranolol, reference compound]
- permeability coefficient (Papp) (Caco-2 cells): 20×10^−6 cms^−1
